Experimental findings from US10323000B2, “Indole derivatives and their use in neurodegenerative diseases” (priority 2014, dated 2019) are described below.

In one assay the target is human P2X7 receptor (Homo sapiens (Human), UniProt Q99572). The assay can be described thus: Pore permeation assay (YO PRO dye uptake). The class given is cell-based. As for the experimental part:
Agonist-induced pore formation was determined by measuring cellular uptake of YO PRO fluorescence dye in HEK293 transfected with human P2X7 receptor. A HEK293 cell over expressing human P2X7 was harvested using HQTase reagent to detach the cells from T75 cm flask. The harvested cells are centrifuged @1200 rpm for 5 min at room temperature. The viability of cells was determined by Trypan blue dye and the cells are plated @10,000 cell/well in 50 ul volume in a 384W BD Poly lysine coated plate and incubated overnight at 37 C. […] The plate was centrifuged at 1000 rpm for 5 seconds and incubated at room temperature for 30 minutes. The uptake of YO PRO dye into the cells was measured using Envision Fluorescence plate reader instrument (Perkin Elmer).

Assay [1] has as its target P2X7 (IL-1β release from THP-1 cells) (Homo sapiens (Human), UniProt Q99572). The assay can be described thus: IL-1β release assay. The class given is cell-based. As for the experimental part:
IL-1β release assay: The activation of P2X7 by ATP leads to a fast transient activation of cells resulting in influx of Ca^2+ followed by conversion of pro-IL-1β to active IL-1β. The functional activity of P2X7 compounds was measured by the release of mature […] in the culture medium of THP-1 cells, detected by sandwich ELISA. […] THP-1 cells were harvested from the flask in 50 ml by centrifugation for 3 min at 100 g. The cells were resuspended to 2×10^5 cells/ml in medium supplemented with 0.5 μM PMA and incubated. The cells were washed and resuspended to 1.5×10^5 cells/ml in medium complemented with 10 ng/ml LPS, and the cells were primed for 4 h at 37° C., 5% CO2. After addition of 20 μL of prediluted test compounds, blank, standard and control reagents, cells were incubated for a further 20 min at 37° C. and stimulated with 0.8 mM BzATP for 30 minutes. The cells were centrifuged, supernatant was collected and the presence of mature IL-1β was detected using Dual human IL-1b kit following manufacturer's instruction. The tetrahydrobenzodiazepine analogs effectively modulated the activity of P2X7 in the cells as measured by the levels of pro-inflammatory cytokine IL-1β, which is released by the activation of P2X7 receptor.

The mark [2] stands for this setting: HEK293 transfected with human P2X7, BzATP 10 uM, YO PRO dye uptake, read-out: hP2X7 IC50.
[3] abbreviates: THP-1 cells, LPS primed, 0.8 mM BzATP, mature IL-1β by sandwich ELISA, read-out: hTHP-1/IL-ib IC50.

Structures are written as SMILES. Where two headings read alike, the source gives them in different places.

P2X7 (IL-1β release from THP-1 cells), sequence (Q99572 whole entry): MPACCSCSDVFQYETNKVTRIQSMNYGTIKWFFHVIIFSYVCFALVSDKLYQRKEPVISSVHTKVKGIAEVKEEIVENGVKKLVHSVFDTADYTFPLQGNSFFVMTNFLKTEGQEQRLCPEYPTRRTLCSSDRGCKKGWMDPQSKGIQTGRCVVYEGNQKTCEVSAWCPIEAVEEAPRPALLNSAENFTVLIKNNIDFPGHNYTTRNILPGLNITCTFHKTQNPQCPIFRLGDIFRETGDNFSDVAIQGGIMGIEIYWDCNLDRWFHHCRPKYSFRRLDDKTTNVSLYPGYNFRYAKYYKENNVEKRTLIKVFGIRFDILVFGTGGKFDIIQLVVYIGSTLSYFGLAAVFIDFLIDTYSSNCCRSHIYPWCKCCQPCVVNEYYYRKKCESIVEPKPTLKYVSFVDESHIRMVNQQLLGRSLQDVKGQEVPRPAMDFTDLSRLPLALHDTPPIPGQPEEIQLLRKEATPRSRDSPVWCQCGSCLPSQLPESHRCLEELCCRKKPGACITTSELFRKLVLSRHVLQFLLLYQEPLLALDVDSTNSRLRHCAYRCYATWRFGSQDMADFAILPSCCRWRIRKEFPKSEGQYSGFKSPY
human P2X7 receptor, sequence (Q99572 whole entry): as above

On to `O=C(NCC1CCCC(F)(F)C1)c1cn(C2COC2)c2cccc(Cl)c12` (racemic) [Compound 69, 4-chloro-N-((3,3-difluorocyclohexyl)methyl)-1-(oxetan-3-yl)-1H-indole-3-carboxamide], for which the IC50 on human P2X7 receptor fell in the range of 10 to 100 nM; in assay [1], 101 to 500 nM.
In the case of `O=C(NCC1(O)CCCC(F)(F)C1)c1cn(C2COC2)c2cccc(Cl)c12` (racemic) [Compound 86, 4-chloro-N-((3,3-difluoro-1-hydroxycyclohexyl)methyl)-1-(oxetan-3-yl)-1H-indole-3-carboxamide], the IC50 (against human P2X7 receptor; in assay [1]) was 10 to 100 nM in each case.
Turning to `CC1CC(F)(F)CC(O)(CNC(=O)c2cn(CC(F)(F)F)c3cccc(Cl)c23)C1` (centres unmarked) [Compound 1, 4-chloro-N-((3,3-difluoro-1-hydroxy-5-methylcyclohexyl)methyl)-1-(2,2,2-trifluoroethyl)-1H-indole-3-carboxamide], the IC50 at human P2X7 receptor (setting [2]) was 101 to 500 nM; in assay [1] (setting [3]), greater than 1000 nM.
In the case of `C[C@H]1CCC[C@@](O)(CNC(=O)c2cn(CC(F)(F)F)c3cccc(Cl)c23)C1` [Compound 2, 4-chloro-N-(((1S,3S)-1-hydroxy-3-methylcyclohexyl)methyl)-1-(2,2,2-trifluoroethyl)-1H-indole-3-carboxamide], the IC50 (against human P2X7 receptor; in assay [1]) was 10 to 100 nM in each case.
With `C[C@@H]1CCC[C@](O)(CNC(=O)c2cn(CC(F)(F)F)c3cccc(Cl)c23)C1` [Compound 3, 4-chloro-N-(((1R,3R)-1-hydroxy-3-methylcyclo-hexyl)methyl)-1-(2,2,2-trifluoroethyl)-1H-indole-3-carboxamide], the IC50 on human P2X7 receptor was 10 to 100 nM; in assay [1] it was 101 to 500 nM.
In the same order, the values of `O=C(NCC1(O)CCC(F)(F)CC1)c1cn(CC(F)(F)F)c2cccc(Cl)c12` [Compound 4, 4-chloro-N-((4,4-difluoro-1-hydroxycyclohexyl)methyl)-1-(2,2,2-trifluoroethyl)-1H-indole-3-carboxamide] are 10 to 100 nM and 101 to 500 nM.
The matching figures for `O=C(NCC1CCC(F)(F)CC1)c1cn(CC(F)(F)F)c2cccc(Cl)c12` [Compound 5, 4-chloro-N-((4,4-difluorocyclohexyl)methyl)-1-(2,2,2-trifluoroethyl)-1H-indole-3-carboxamide]: 10 to 100 nM and 101 to 500 nM.
The matching figures for `NCCn1cc(C(=O)NCC2CCC(F)(F)CC2)c2c(Cl)cccc21` [Compound 6, 1-(2-aminoethyl)-4-chloro-N-((4,4-difluorocyclo-hexyl)methyl)-1H-indole-3-carboxamide]: 101 to 500 nM and 10 to 100 nM.
As to `C[C@H]1CCC[C@@](O)(CNC(=O)c2cn(CCC(F)F)c3cccc(Cl)c23)C1` [Compound 7], the figures for the IC50 (on human P2X7 receptor (setting [2]); in assay [1]) were less than 10 nM and 10 to 100 nM, respectively.
On to `C[C@@H]1CCC[C@](O)(CNC(=O)c2cn(CCC(F)F)c3cccc(Cl)c23)C1` [Compound 8, 4-Chloro-1-(3,3-difluoro-propyl)-1H-indole-3-carboxylic acid ((1R,3R)-1-hydroxy-3-methyl-cyclohexylmethyl)-amide], for which the IC50 was 10 to 100 nM on human P2X7 receptor and 101 to 500 nM in assay [1].
For the molecule `O=C(NCC1CCCC(F)(F)C1)c1cn(CCC(F)F)c2cccc(Cl)c12` (centres unmarked) [Compound 9, 4-Chloro-1-(3,3-difluoro-propyl)-1H-indole-3-carboxylic acid (3,3-difluoro-cyclohexylmethyl)-amide], the IC50 on human P2X7 receptor (setting [2]) was less than 10 nM; in assay [1] it was 101 to 500 nM.
Take `O=C(NCC1(O)CCC(F)(F)CC1)c1cn(CCC(F)F)c2cccc(Cl)c12` [Compound 10, 4-Chloro-1-(3,3-difluoro-propyl)-1H-indole-3-carboxylic acid (4,4-difluoro-1-hydroxy-cyclohexylmethyl)-amide]: the IC50 is 10 to 100 nM against human P2X7 receptor and 101 to 500 nM in assay [1].
In the same order, the values of `O=C(NCC1(O)CCC(F)(F)CC1)c1cn(CCC(F)(F)F)c2cccc(Cl)c12` [Compound 12, 4-chloro-N-((4,4-difluoro-1-hydroxycyclohexyl)methyl)-1-(3,3,3-trifluoropropyl)-1H-indole-3-carboxamide] are 101 to 500 nM and 500 to 999 nM.
In the same order, the values of `O=C(NCC1CCC(F)(F)CC1)c1cn(CCC(F)(F)F)c2cccc(Cl)c12` [Compound 13, 4-chloro-N-((4,4-difluorocyclohexyl)methyl)-1-(3,3,3-trifluoropropyl)-1H-indole-3-carboxamide] are 10 to 100 nM and 10 to 100 nM.
In the same order, the values of `COCCn1cc(C(=O)NCC2(OC)CCC(F)(F)CC2)c2c(Cl)cccc21` [Compound 17, 4-Chloro-1-(2-methoxy-ethyl)-1H-indole-3-carboxylic acid (4,4-difluoro-1-methoxy-cyclohexylmethyl)-amide] are 10 to 100 nM and 101 to 500 nM.
Turning to `COCCn1cc(C(=O)NCC2(O)CCCCC2O)c2c(Cl)cccc21` (centres unmarked) [Compound 18, 4-Chloro-1-(2-methoxy-ethyl)-1H-indole-3-carboxylic acid (1,2-dihydroxy-cyclohexylmethyl)-amide], the IC50 (at human P2X7 receptor (setting [2]); in assay [1] (setting [3])) was greater than 1000 nM each time.
Take `COCCn1cc(C(=O)NCC2(O)CCCCC2)c2c(Cl)cccc21` [Compound 19, 4-Chloro-1-(2-methoxy-ethyl)-1H-indole-3-carboxylic acid (1-hydroxy-cyclohexyl methyl)-amide]: the figures for the IC50 (on human P2X7 receptor; in assay [1]) were 10 to 100 nM and 101 to 500 nM, respectively.
In the same order, the values of `COCCn1cc(C(=O)NC[C@]2(O)CCCC(F)(F)C2)c2c(Cl)cccc21` [Compound 20, (S)-4-chloro-N-((3,3-difluoro-1-hydroxycyclohexyl)methyl)-1-(2-methoxyethyl)-1H-indole-3-carboxamide] are 10 to 100 nM and 101 to 500 nM.
Turning to `COCCn1cc(C(=O)NC[C@@]2(O)CCCC(F)(F)C2)c2c(Cl)cccc21` [Compound 21, (R)-4-chloro-N-((3,3-difluoro-1-hydroxycyclohexyl)methyl)-1-(2-methoxyethyl)-1H-indole-3-carboxamide], the IC50 is less than 10 nM on human P2X7 receptor (setting [2]) and 10 to 100 nM in assay [1].
As for `CCC1CCCC(O)(CNC(=O)c2cn(CCOC)c3cccc(Cl)c23)C1` (centres unmarked) [Compound 22, 4-chloro-N-((3-ethyl-1-hydroxycyclohexyl)methyl)-1-(2-methoxyethyl)-1H-indole-3-carboxamide], the IC50 against human P2X7 receptor is 101 to 500 nM; in assay [1] (setting [3]), greater than 1000 nM.
As for `COCCn1cc(C(=O)NCCc2cccs2)c2c(Cl)cccc21` [Compound 30, 4-Chloro-1-(2-methoxy-ethyl)-1H-indole-3-carboxylic acid (2-thiophen-2-yl-ethyl)-amide], the IC50 lay within 10 to 100 nM against human P2X7 receptor and 101 to 500 nM in assay [1].
As to `COCCn1cc(C(=O)NC(CO)c2cccc(C(F)(F)F)c2Cl)c2c(Cl)cccc21` (centres unmarked) [Compound 32, 4-chloro-N-(1-(2-chloro-3-(trifluoromethyl)phenyl)-2-hydroxyethyl)-1-(2-methoxyethyl)-1H-indole-3-carboxamide], the IC50 at human P2X7 receptor (setting [2]) fell in the range of 101 to 500 nM; in assay [1] (setting [3]) it was 500 to 999 nM.
In the case of `COCCn1cc(C(=O)NCC(C)c2ccccc2Cl)c2c(Cl)cccc21` (centres unmarked) [Compound 33, 4-chloro-N-(2-(2-chlorophenyl)propyl)-1-(2-methoxyethyl)-1H-indole-3-carboxamide], the IC50 was 101 to 500 nM against human P2X7 receptor and greater than 1000 nM in assay [1] (setting [3]).
On to `CN(C)C(CNC(=O)c1cn(C2CCOC2)c2cccc(Cl)c12)C1CCCCC1` (centres unmarked) [Compound 111, 4-Chloro-1-(tetrahydro-furan-3-yl)-1H-indole-3-carboxylic acid (2-cyclohexyl-2-dimethylamino-ethyl)-amide], for which, at human P2X7 receptor (setting [2]), the IC50 was greater than 1000 nM.
Same read-out and setting: as for `O=C(NCC1(O)CCCC(C(F)(F)F)C1)c1cn(CC2CCCO2)c2cccc(Cl)c12` (centres unmarked) [Compound 136, 4-chloro-N-((1-hydroxy-3-(trifluoromethyl)cyclohexyl)methyl)-1-((tetrahydrofuran-2-yl)methyl)-1H-indole-3-carboxamide], the figure is greater than 1000 nM.
`O=C(NCC1CCC(F)(F)CC1)c1cn(C2CC3(CNC3)C2)c2cccc(Cl)c12` (centres unmarked) [Compound 172, 4-chloro-N-((4,4-difluorocyclohexyl)methyl)-1-(2-azaspiro[3.3]heptan-6-yl)-1H-indole-3-carboxamide] displayed an IC50 against human P2X7 receptor of 500 to 999 nM.
Same read-out and setting: the figure for `O=C(NCC1(O)CCCC(F)(F)C1)c1cn(CCN2CCCCC2)c2cccc(Cl)c12` (centres unmarked) [Compound 192, 4-chloro-N-((3,3-difluoro-1-hydroxycyclohexyl)methyl)-1-(2-(piperidin-1-yl)ethyl)-1H-indole-3-carboxamide] is 101 to 500 nM.
